# Test results reported in PubChem BioAssay (NCI).
# Values joined by “and” are separate entries in the source; they are usually repeats but may differ in a detail not shown here. Equal entries are not always repeated.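 Tested at 5 concentrations; 48 h exposure; 96-well plates; endpoints linearly interpolated, else capped at highest concentration. GI50: concentration for 50% inhibition of growth. TGI denotes the concentration required for complete inhibition of growth.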
# Test system: SF-295 CNS
# Test: inhibition of tumour cell growth, NCI panel, 48 h
SMILES,TGI [µM],GI50 [µM]
Cc1ccc2c(c1)[n+]([O-])c(N)n[n+]2[O-],> 100,–
O=c1/c(=C/c2ccco2)sc2nc3ccccc3n12,> 100,> 100
O=C1CCC2(c3ccc(F)cc3)Nc3cc(Cl)ccc3N12 (stereo unspecified),> 100,–
C/C(CC(=O)Nc1ccc(C)cc1C)=N/N=C(N)N,> 100,–

# Test system: SF-539 CNS
# Test: inhibition of tumour cell growth, NCI panel, 48 h
SMILES,TGI,GI50 [µM]
COC(=O)c1c/c(=N\NC(=O)CC(=O)Nc2ccccc2OC)c2ccccc2o1,> 100 µM,–
NC(CCC(=O)NC(CSSCCCCS(=O)O)C(=O)NCC(=O)O)C(=O)O (stereo unspecified),> 100 µM,–
COC12C=C(C)C(CC1)CC2C(=O)O (stereo unspecified),> 100 µM,–
COc1ccc(-c2cnnc3c(-c4cccc(C(F)(F)F)c4)cnn23)cc1,> 100 µM,3
OCC(O)CC[CH2][Sn]([Br])([c]1ccccc1)[c]1ccccc1 (stereo unspecified),> 100 µM,> 100
CCc1ccc(/C=C\c2cc(OC)c(OC)c(OC)c2)cc1,0.0443 µM and 0.0546 µM,0.0163
O=c1c2cc([N+](=O)[O-])ccc2sc2ccsc12,> 100 µM,–
C=CCCCCCCCCC(=O)[O][Sn]([CH2]CCC)([CH2]CCC)[CH2]CCC,0.332 µM,0.169
COc1ccc(C2=CC3CCC2C3)cc1 (stereo unspecified),> 100 µM,–
CC/C(=C(/c1ccc(O)cc1)c1ccc(OCCNC)cc1)c1ccccc1,3.22 µM,1.7
[Cl-].[Dy+3].[O-]/N=C(\c1ccccc1)c1ccccn1.[O-]/N=C(\c1ccccc1)c1ccccn1.[O-]/N=C(\c1ccccc1)c1ccccn1,64.3 µM,25.5
CC(C)(CC(=O)Nc1ccccc1)C(=O)O,> 100 µM,–
COc1ccc(/C(COc2c(-c3ccccc3)oc3ccccc3c2=O)=N\O)cc1,27.9 µM,13.5
NC(=O)C(=O)N/N=C(\CC1(O)C(=O)Nc2ccccc21)c1ccc2ccccc2c1 (stereo unspecified),> 100 µM,–
Cc1cc2c(cc1C)[n+](=O)c(C(=O)C/C(=N/NC(=O)CC#N)C(=O)Nc1ccccc1C(F)(F)F)c(C)n2[O-],> 100 µM,–
COC(=O)/C(=N/NC(=O)C[N+](C)(C)C)C(C(=O)OC)C(=O)C(=O)Nc1ccc(F)cc1 (stereo unspecified),> 100 µM,–
O=C(c1ccccc1)c1nnc(C(=O)c2ccccc2)nn1,> 344 µM,–
Brc1cccc(C=NC23CC4CC(CC(C4)C2)C3)c1,> 100 µM,–
CCC[CH2][Sn]([CH2]CCC)([O]C(=O)c1cccnc1SC)[O]C(=O)c1cccnc1SC,2.49 µM,1.2

SMILES,TGI,GI50 [µM]
CC1(C)OC2[C@@H](CNC(=O)NC(=O)NC(=O)CI)O[C@@H](n3cnc4c(NC(=O)Nc5ccccc5)ncnc43)[C@H]2O1 (stereo partly specified),10.9 µM,4.75
COc1cc(C2=C(c3ccccc3)COC2=O)cc(OC)c1OC,> 51.4 µM,1.26
COc1cc(C2NC(=O)c3ccccc3N2)ccc1OCCCCCOc1c(OC)cc(C2=NOC(c3cc(OC)c(OC)c(OC)c3)C2)cc1OC (stereo unspecified),84.7 µM,19.4
O=C1O[C@@H](c2ccc3c(c2)OCO3)C2C(=O)O[C@@H](c3ccc4c(c3)OCO4)C12 (stereo partly specified),> 100 µM,–
O=C1CCC(=O)N2CCCCN12,> 100 µM,–
CC(C)C(=O)NC(=S)Nc1ccc([N+](=O)[O-])cc1C#N,> 100 µM,–
C/C(CC(=O)Nc1cc(Cl)c(Cl)cc1Cl)=N\NC(N)=O,> 100 µM,–
N#Cc1cc([N+](=O)[O-])ccc1NC(=O)C(=O)Nc1n[nH]c(N)n1,> 100 µM,–
O=C(/C=C/c1c(O)ccc2ccccc12)c1cccc(O)c1,> 100 µM,–
CC1=NN(C(=O)Nc2ccccc2)C(=O)C2CCC(=O)N12 (stereo unspecified),> 100 µM,–
COC(=O)C1Cc2c(n(Cc3ccccc3)c3ccccc23)C(CCC(=O)O)N1C(C)C (stereo unspecified),> 100 µM,–
O=C(O)CNS(=O)(=O)c1ccc(NCc2ccccc2)cc1,> 100 µM,–
CC(C)(C)C1C=C(Sc2ccccc2)C(=O)O1 (stereo unspecified),> 100 µM,–
CCC[CH2][Sn]1([CH2]CCC)[O]Cc2nc(C)ccc2[O]1,24.5 µM,12.1
Cc1ccc2c(c1)[n+]([O-])c(N)n[n+]2[O-],> 100 µM,–
O=c1/c(=C/c2ccco2)sc2nc3ccccc3n12,> 100 µM,> 100
O=C1CCC2(c3ccc(F)cc3)Nc3cc(Cl)ccc3N12 (stereo unspecified),> 100 µM,–
C/C(CC(=O)Nc1ccc(C)cc1C)=N/N=C(N)N,> 100 µM,–

# Test system: SK-MEL-2 melanoma
# Test: inhibition of tumour cell growth, NCI panel, 48 h
SMILES,TGI,GI50 [µM]
COC(=O)c1c/c(=N\NC(=O)CC(=O)Nc2ccccc2OC)c2ccccc2o1,> 100 µM,–
NC(CCC(=O)NC(CSSCCCCS(=O)O)C(=O)NCC(=O)O)C(=O)O (stereo unspecified),> 100 µM,–
COC12C=C(C)C(CC1)CC2C(=O)O (stereo unspecified),> 100 µM,–
COc1ccc(-c2cnnc3c(-c4cccc(C(F)(F)F)c4)cnn23)cc1,79.8 µM,1.43
OCC(O)CC[CH2][Sn]([Br])([c]1ccccc1)[c]1ccccc1 (stereo unspecified),> 100 µM,> 100
CCc1ccc(/C=C\c2cc(OC)c(OC)c(OC)c2)cc1,0.66 µM and 0.203 µM,0.0258
O=c1c2cc([N+](=O)[O-])ccc2sc2ccsc12,> 100 µM,–
C=CCCCCCCCCC(=O)[O][Sn]([CH2]CCC)([CH2]CCC)[CH2]CCC,0.377 µM,0.189
COc1ccc(C2=CC3CCC2C3)cc1 (stereo unspecified),> 100 µM,–
COc1ccc(/C=C/CN(C)CCc2ccccc2)cc1OC,> 100 µM,–
CC/C(=C(/c1ccc(O)cc1)c1ccc(OCCNC)cc1)c1ccccc1,3.77 µM,2.08
[Cl-].[Dy+3].[O-]/N=C(\c1ccccc1)c1ccccn1.[O-]/N=C(\c1ccccc1)c1ccccn1.[O-]/N=C(\c1ccccc1)c1ccccn1,64.8 µM,27.3
CC(C)(CC(=O)Nc1ccccc1)C(=O)O,> 100 µM,–
COc1ccc(/C(COc2c(-c3ccccc3)oc3ccccc3c2=O)=N\O)cc1,45.5 µM,9.82
NC(=O)C(=O)N/N=C(\CC1(O)C(=O)Nc2ccccc21)c1ccc2ccccc2c1 (stereo unspecified),48.5 µM,–
Cc1cc2c(cc1C)[n+](=O)c(C(=O)C/C(=N/NC(=O)CC#N)C(=O)Nc1ccccc1C(F)(F)F)c(C)n2[O-],92.3 µM,–
COC(=O)/C(=N/NC(=O)C[N+](C)(C)C)C(C(=O)OC)C(=O)C(=O)Nc1ccc(F)cc1 (stereo unspecified),> 100 µM,–
O=C(c1ccccc1)c1nnc(C(=O)c2ccccc2)nn1,> 344 µM,–
Brc1cccc(C=NC23CC4CC(CC(C4)C2)C3)c1,> 100 µM,–

SMILES,TGI,GI50 [µM]
CCC[CH2][Sn]([CH2]CCC)([O]C(=O)c1cccnc1SC)[O]C(=O)c1cccnc1SC,1.39 µM,0.311
CC1(C)OC2[C@@H](CNC(=O)NC(=O)NC(=O)CI)O[C@@H](n3cnc4c(NC(=O)Nc5ccccc5)ncnc43)[C@H]2O1 (stereo partly specified),21.5 µM,10.5
COc1cc(C2=C(c3ccccc3)COC2=O)cc(OC)c1OC,> 100 µM,7.81
COc1cc(C2NC(=O)c3ccccc3N2)ccc1OCCCCCOc1c(OC)cc(C2=NOC(c3cc(OC)c(OC)c(OC)c3)C2)cc1OC (stereo unspecified),> 100 µM,35.9
O=C1O[C@@H](c2ccc3c(c2)OCO3)C2C(=O)O[C@@H](c3ccc4c(c3)OCO4)C12 (stereo partly specified),> 100 µM,–
O=C1CCC(=O)N2CCCCN12,> 100 µM,–
CC(C)C(=O)NC(=S)Nc1ccc([N+](=O)[O-])cc1C#N,> 100 µM,–
C/C(CC(=O)Nc1cc(Cl)c(Cl)cc1Cl)=N\NC(N)=O,> 100 µM,–
N#Cc1cc([N+](=O)[O-])ccc1NC(=O)C(=O)Nc1n[nH]c(N)n1,> 100 µM,–
O=C(/C=C/c1c(O)ccc2ccccc12)c1cccc(O)c1,> 100 µM,–
CC1=NN(C(=O)Nc2ccccc2)C(=O)C2CCC(=O)N12 (stereo unspecified),> 100 µM,–
COC(=O)C1Cc2c(n(Cc3ccccc3)c3ccccc23)C(CCC(=O)O)N1C(C)C (stereo unspecified),> 100 µM,–
O=C(O)CNS(=O)(=O)c1ccc(NCc2ccccc2)cc1,> 100 µM,–
CC(C)(C)C1C=C(Sc2ccccc2)C(=O)O1 (stereo unspecified),> 100 µM,–
CCC[CH2][Sn]1([CH2]CCC)[O]Cc2nc(C)ccc2[O]1,8.8 µM,3.32
Cc1ccc2c(c1)[n+]([O-])c(N)n[n+]2[O-],> 100 µM,–
O=c1/c(=C/c2ccco2)sc2nc3ccccc3n12,> 100 µM,> 100
O=C1CCC2(c3ccc(F)cc3)Nc3cc(Cl)ccc3N12 (stereo unspecified),> 100 µM,–
C/C(CC(=O)Nc1ccc(C)cc1C)=N/N=C(N)N,> 100 µM,–
